Measured values: patent US11399542B2, “Pesticidally active heterocyclic derivatives with sulfur containing substituents” (SYNGENTA PARTICIPATIONS AG, priority 2017, dated 2022)

Legend:
[1] = test system: Frankliniella occidentalis (Western Flower Thrips); assay: Example B8: Activity against Frankliniella occidentalis, sprayed sunflower leaf discs; assay type: in vivo; conditions: foliar, 168 h, application rate 200 ppm, mixed ages on sunflower leaf discs, 7 days after infestation
Method: Sunflower leaf discs were placed on agar in 24-well microtiter plates and sprayed with aqueous test solutions prepared from […] stock solutions. After drying the leaf discs were infested with a Frankliniella population of mixed ages. The samples were assessed for mortality 7 days after infestation.

[2] = test system: Plutella xylostella (Diamond Back Moth); assay: Example B3: Activity against Plutella xylostella, artificial diet, L2 larvae; assay type: in vivo; conditions: 120 h, application rate 200 ppm, L2 larvae on artificial diet, 5 days after infestation, read-out: effect in at least one of the two categories (mortality or growth inhibition)
Method: (§1) 24-well microtiter plates with artificial diet were treated with aqueous test solutions prepared from 10′000 ppm DMSO stock solutions by pipetting. After drying, the plates were infested with L2 larvae (10 to 15 per well). The samples were assessed for mortality and growth inhibition in comparison to untreated samples 5 days after infestation.

[3] = test system: Euschistus heros (Neotropical Brown Stink Bug); assay: Example B9: Activity against Euschistus heros, sprayed soybean leaf; assay type: in vivo; conditions: 120 h, application rate 200 ppm, N2 nymphs on soybean leaf, 5 days after infestation, read-out: effect in at least one of the two categories (mortality or growth inhibition)
Method: Soybean leaf on agar in 24-well microtiter plates were sprayed with aqueous test solutions prepared from 10′000 ppm DMSO stock solutions. After drying the leaf were infested with N2 nymphs. The samples were assessed for mortality and growth inhibition in comparison to untreated samples 5 days after infestation.

[4] = test system: Myzus persicae (Green Peach Aphid); assay: Example B5: Activity against Myzus persicae, sprayed sunflower leaf discs; assay type: in vivo; conditions: foliar, 144 h, application rate 200 ppm, mixed-age aphids on sunflower leaf discs, 6 days after infestation
Method: Sunflower leaf discs were placed on agar in a 24-well microtiter plate and sprayed with aqueous test solutions prepared from 10′000 ppm DMSO stock solutions. After drying, the leaf discs were infested with an aphid population of mixed ages. The samples were assessed for mortality 6 days after infestation.

[5] = test system: Bemisia tabaci (Cotton White Fly); assay: Example B7: Activity against Bemisia tabaci, sprayed cotton leaf discs; assay type: in vivo; conditions: foliar, 144 h, application rate 200 ppm, adult white flies on cotton leaf discs, 6 days after incubation
Method: Cotton leaf discs were placed on agar in 24-well microtiter plates and sprayed with aqueous test solutions prepared from 10′000 ppm DMSO stock solutions. After drying the leaf discs were infested with adult white flies. The samples were checked for mortality 6 days after incubation.

[6] = test system: Myzus persicae (Green Peach Aphid); assay: Example B6: Activity against Myzus persicae, systemic via roots of pea seedlings; assay type: in vivo; conditions: 144 h, test rate 24 ppm, pea seedling roots in test solution, 6 days
Method: Roots of pea seedlings infested with an aphid population of mixed ages were placed directly in the aqueous test solutions prepared from 10′000 DMSO stock solutions. The samples were assessed for mortality 6 days after placing seedlings in test solutions.

[7] = test system: Diabrotica balteata (Corn Root Worm); assay: Example B4: Activity against Diabrotica balteata, sprayed maize sprouts; assay type: in vivo; conditions: 96 h, application rate 200 ppm, L2 larvae on maize sprouts, 4 days after infestation, read-out: effect in at least one of the two categories (mortality or growth inhibition)
Method: as §1, with “Maize sprouts placed onto an agar layer in 24-well” for “24-well”, “plates” for “plates with artificial diet”, “spraying.” for “pipetting.”, “(6” for “(10”, “10” for “15”, “4” for “5”

[8] = test system: Spodoptera littoralis (Egyptian Cotton Leaf Worm); assay: Example B1: Activity against Spodoptera littoralis, sprayed cotton leaf discs; assay type: in vivo; conditions: foliar, 72 h, application rate 200 ppm, L1 larvae on cotton leaf discs, 3 days after infestation, read-out: control (at least one of mortality, anti-feedant effect, growth inhibition)
Method: Cotton leaf discs were placed onto agar in 24-well microtiter plates and sprayed with aqueous test solutions prepared from 10′000 ppm DMSO stock solutions. After drying the leaf discs were infested with five L1 larvae. The samples were assessed for mortality, anti-feeding effect, and growth inhibition in comparison to untreated samples 3 days after infestation. Control of Spodoptera littoralis by a test sample is given when at least one of the categories mortality, anti-feedant effect, and growth inhibition is higher than the untreated sample.

[9] = test system: Plutella xylostella (Diamond Back Moth); assay: Example B12: Activity against Plutella xylostella, artificial diet, eggs; assay type: in vivo; conditions: 192 h, application rate 200 ppm, eggs on artificial diet, 8 days after infestation, read-out: effect in at least one of the two categories (mortality or growth inhibition)
Method: as §1, with “drying, Plutella eggs were pipetted through a plastic stencil onto a gel blotting paper and” for “drying,”, “plate was closed” for “plates were infested”, “it.” for “L2 larvae (10 to 15 per well).”, “8” for “5”

[10] = test system: Spodoptera littoralis (Egyptian Cotton Leaf Worm); assay: Example B2: Activity against Spodoptera littoralis, systemic via lettuce roots in agar; assay type: in vivo; conditions: 144 h, test rate 12.5 ppm, lettuce root uptake, 6 days after infestation, read-out: effect in at least one of the three categories (mortality, anti-feeding, or growth inhibition)
Excerpt: Test compounds were applied by pipette from 10′000 ppm DMSO stock solutions into 24-well plates and mixed with agar. Lettuce seeds were placed onto the agar and the multi well plate was closed by another plate which contained also agar. After 7 days the compound was absorbed by the roots and the lettuce grew into the lid plate. The lettuce leaves were then cut off into the lid plate. Spodoptera eggs were pipetted through a plastic stencil onto a humid gel blotting paper and the lid plate was closed with it. The samples were assessed for mortality, anti-feedant effect and growth inhibition in comparison to untreated samples 6 days after infestation.

Row | Structure (SMILES) | melting point [°C] | mortality at 200 ppm [1] [%] | percent effect (mortality or growth inhibition) at 200 ppm [2] [%] | percent effect (mortality or growth inhibition) at 200 ppm [3] [%] | mortality at 200 ppm [4] [%] | mortality at 200 ppm [5] [%] | mortality at 24 ppm [6] [%] | percent effect (mortality or growth inhibition) at 200 ppm [7] [%] | percent control (mortality, anti-feedant effect or growth inhibition) at 200 ppm [8] [%] | percent effect (mortality or growth inhibition) at 200 ppm [9] [%] | percent effect (mortality, anti-feeding or growth inhibition) at 12.5 ppm [10] [%]
1 | CCSc1cc2c(cc1-c1nc3cc(C(F)(F)F)cnc3n1C)n(C)c(=O)n2CC | 186 to 188 |  |  |  |  |  |  |  |  |  | 
2 | CCS(=O)(=O)c1cc2c(nc1-c1nc3cc(C(F)(F)F)ncc3n1C)n(C)c(=O)n2C [Compound P8, 6-ethylsulfonyl-1,3-dimethyl-5-[3-methyl-6-(trifluoromethyl)imidazo[4,5-c]pyridin-2-yl]imidazo[4,5-b]pyridin-2-one] |  | ≥ 80 | ≥ 80 | ≥ 80 | ≥ 80 | ≥ 80 | ≥ 80 |  |  |  | 
3 | CCSc1cc2c(cc1-c1nc3cc(C(F)(F)F)cnc3n1C)n(C#N)c(=O)n2C | 255 to 257 |  |  |  |  |  |  |  |  |  | 
4 | CCS(=O)(=O)c1cc2c(cc1-c1nc3cc(C(F)(F)F)cnc3n1C)n(COC)c(=O)n2C [Compound P18, 5-ethylsulfonyl-1-(methoxy-methyl)-3-methyl-6-[3-methyl-6-(trifluoromethyl)imidazo[4,5-b]pyridine-2-yl]benzimidazol-2-one] |  |  | ≥ 80 | ≥ 80 | ≥ 80 |  | ≥ 80 | ≥ 80 |  |  | 
5 | CCS(=O)(=O)c1cc2c(nc1-c1nc3cc(SC(F)(F)F)ccc3n1C)n(C)c(=O)n2C [Compound P38, 6-ethylsulfonyl-1,3-dimethyl-5-[1-methyl-5-(trifluoromethyl-sulfanyl)benzimidazol-2-yl]imidazo[4,5-b]pyridin-2-one] |  | ≥ 80 |  |  | ≥ 80 | ≥ 80 | ≥ 80 | ≥ 80 | ≥ 80 | ≥ 80 | 
6 | CCS(=O)(=O)c1cc2c(nc1-c1nc3cc(C(F)(F)F)cnc3n1C)n(C)c(=O)n2C [Compound P22, 6-ethylsulfonyl-1,3-dimethyl-5-[3-methyl-6-(trifluoromethyl)imidazo[4,5-b]pyridine-2-yl]imidazo[4,5-b]pyridine-2-one] |  | ≥ 80 | ≥ 80 | ≥ 80 | ≥ 80 | ≥ 80 | ≥ 80 | ≥ 80 | ≥ 80 |  | 
7 | CCSc1cc2c(cc1-c1nc3cc(SC(F)(F)F)ccc3o1)n(C)c(=O)n2C | 206 to 208 |  |  |  |  |  |  |  |  |  | 
8 | CCn1c(=O)n(C)c2cc(-c3nc4cc(C(F)(F)F)ncc4n3C)c(S(=O)(=O)CC)cc21 [Compound P4, 1-ethyl-6-ethylsulfonyl-3-methyl-5-[3-methyl-6-(trifluoromethyl)imidazo[4,5-c]pyridin-2-yl]benzimidazol-2-one] |  | ≥ 80 | ≥ 80 | ≥ 80 | ≥ 80 |  | ≥ 80 | ≥ 80 |  |  | 
9 | CCS(=O)(=O)c1cc2c(nc1-c1nc3cc([S+]([O-])C(F)(F)F)ccc3o1)n(C)c(=O)n2C (stereo not shown) [Compound P45, 6-ethylsulfonyl-1,3-dimethyl-5-[5-(trifluoromethylsulfinyl)-1,3-benzoxazol-2-yl]imidazo[4,5-b]pyridin-2-one] |  | ≥ 80 |  | ≥ 80 |  |  | ≥ 80 | ≥ 80 | ≥ 80 | ≥ 80 | 
10 | CCSc1cc2c(cc1-c1nc3cc(C(F)(F)F)cnc3n1C)n(CC)c(=O)n2C [Compound P7, 1-ethyl-5-ethylsulfanyl-3-methyl-6-[3-methyl-6-(trifluoromethyl)imidazo[4,5-b]pyridin-2-yl]benzimidazol-2-one] |  |  | ≥ 80 | ≥ 80 |  |  |  | ≥ 80 |  |  | 
11 | CCS(=O)(=O)c1cc2c(cc1-c1nc3cc(SC(F)(F)F)ccc3n1C)n(C)c(=O)n2C [Compound P36, 5-ethylsulfonyl-1,3-dimethyl-6-[1-methyl-5-(trifluoromethyl-sulfanyl)benzimidazol-2-yl]benzimidazol-2-one] |  |  |  | ≥ 80 | ≥ 80 | ≥ 80 | ≥ 80 | ≥ 80 |  | ≥ 80 | 
12 | CCS(=O)(=O)c1cc2c(cc1-c1nc3cc(C(F)(F)F)ncc3n1C)n(C)c(=O)n2C [Compound P9, 5-ethylsulfonyl-1,3-dimethyl-6-[3-methyl-6-(trifluoromethyl)imidazo[4,5-c]pyridin-2-yl]benzimidazol-2-one] |  | ≥ 80 |  | ≥ 80 | ≥ 80 |  | ≥ 80 |  |  |  | 
13 | CCS(=O)(=O)c1cc2c(nc1-c1nc3cc(S(=O)(=O)C(F)(F)F)ccc3n1C)n(C)c(=O)n2C [Compound P39, 6-ethylsulfonyl-1,3-dimethyl-5-[1-methyl-5-(trifluoromethyl-sulfonyl)benzimidazol-2-yl]imidazo[4,5-b]pyridine-2-one] |  |  |  | ≥ 80 | ≥ 80 | ≥ 80 | ≥ 80 |  | ≥ 80 | ≥ 80 | 
14 | CCn1c(=O)n(C)c2cc(-c3nc4cc(C(F)(F)F)cnc4n3C)c(S(=O)(=O)CC)cc21 [Compound P5, 1-ethyl-6-ethylsulfonyl-3-methyl-5-[3-methyl-6-(trifluoromethyl)imidazo[4,5-b]pyridin-2-yl]benzimidazol-2-one] |  | ≥ 80 | ≥ 80 | ≥ 80 | ≥ 80 | ≥ 80 | ≥ 80 | ≥ 80 | ≥ 80 |  | ≥ 80
15 | CCSc1cc2c(cc1-c1nc3cc(C(F)(F)F)ccc3o1)n(C)c(=O)n2C | 205 to 207 |  |  |  |  |  |  |  |  |  | 
